Test results taken from PubChem BioAssay AID330 (DTP/NCI, 2004).
Several values for one entry are separate records, joined by “and”; a condition that tells them apart may be missing. Identical values can stand only once. Toxic doses and inconclusive results are not listed.

Test system: P388 leukemia ip, CD2F1 mice, survival T/C
Test: NCI In Vivo Anticancer Drug Screen. Data for tumor model P388 Leukemia (intraperitoneal) in CD2F1 (CDF1) mice
Conditions: endpoint: median survival time, higher = longer survival
Procedure, shortened: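 Mice carrying the transplanted tumor received test compound or vehicle. Survival was recorded in each group, and the value is the treated-group measurement divided by that of the vehicle-treated control group.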

[1] = dose: 25.0 mg/kg/injection, schedule: Q01DX009 (ip), vehicle: saline with Tween-80
[2] = dose: 25.0 mg/kg/injection, schedule: Q04DX003 (ip), vehicle: saline with Tween-80
[3] = dose: 50.0 mg/kg/injection, schedule: Q01DX009 (ip), vehicle: saline with Tween-80
[4] = dose: 100.0 mg/kg/injection, schedule: Q01DX009 (ip), vehicle: saline with Tween-80
[5] = dose: 50.0 mg/kg/injection, schedule: Q01DX009 (ip), vehicle: saline
[6] = dose: 60.0 mg/kg/injection, schedule: Q01DX005 (ip), vehicle: saline with Tween-80
[7] = dose: 12.5 mg/kg/injection, schedule: Q01DX009 (ip), vehicle: saline with Tween-80
[8] = dose: 50.0 mg/kg/injection, schedule: Q01DX009 (ip), vehicle: Klucel (hydroxypropylcellulose) (HPC)
[9] = dose: 100.0 mg/kg/injection, schedule: Q01DX009 (ip), vehicle: Klucel (hydroxypropylcellulose) (HPC)
[10] = dose: 50.0 mg/kg/injection, schedule: Q01DX005 (ip), vehicle: saline with Tween-80
[11] = dose: 100.0 mg/kg/injection, schedule: Q01DX005 (ip), vehicle: saline with Tween-80
[12] = dose: 120.0 mg/kg/injection, schedule: Q01DX005 (ip), vehicle: saline with Tween-80
[13] = dose: 240.0 mg/kg/injection, schedule: Q01DX005 (ip), vehicle: saline with Tween-80
[14] = dose: 200.0 mg/kg/injection, schedule: Q01DX005 (ip), vehicle: saline with Tween-80

With S=P(c1ccccc1)(N1CC1)N1CC1 the T/C [1] was 109 % of control, the T/C [2] was 104 % of control and the T/C [3] was 104 % of control. The T/C (dose: 50.0 mg/kg/injection, schedule: Q04DX003 (ip), vehicle: saline with Tween-80) was 104 % of control, the T/C [4] was 86 % of control and the T/C (dose: 100.0 mg/kg/injection, schedule: Q04DX003 (ip), vehicle: saline with Tween-80) was 100 % of control and 113 % of control.

With O=C([O-])[O-].O=S(=O)(O)O.[Co+3].[NH-]CC[NH-].[NH-]CC[NH-] the T/C [5] was 90 % of control, the T/C (dose: 100.0 mg/kg/injection, schedule: Q01DX009 (ip), vehicle: saline) was 93 % of control and the T/C (dose: 200.0 mg/kg/injection, schedule: Q01DX009 (ip), vehicle: saline) was 94 % of control.

For Cc1cc(-c2c(C)[nH]n(-c3nc4ccc(F)cc4s3)c2=O)n(-c2nc3ccc(F)cc3s2)n1, the T/C (dose: 15.0 mg/kg/injection, schedule: Q01DX005 (ip), vehicle: saline with Tween-80) was 96 % of control, the T/C (dose: 30.0 mg/kg/injection, schedule: Q01DX005 (ip), vehicle: saline with Tween-80) was 95 % of control and the T/C [6] was 100 % of control and 92 % of control.

COc1cccc2c1C(=O)c1c(O)c3c(c(O)c1C2=O)CC(O)(C(C)=O)CC3OC1CC(NCC2OC(C(=O)O)C(O)C2O)C(O)C(C)O1 (centres undefined) was tested, and the T/C (dose: 3.13 mg/kg/injection, schedule: Q04DX003 (ip), vehicle: water) was 99 % of control, the T/C (dose: 6.25 mg/kg/injection, schedule: Q04DX003 (ip), vehicle: water) was 102 % of control and the T/C (dose: 12.5 mg/kg/injection, schedule: Q04DX003 (ip), vehicle: water) was 109 % of control. The T/C (dose: 25.0 mg/kg/injection, schedule: Q04DX003 (ip), vehicle: water) was 116 % of control and the T/C (dose: 50.0 mg/kg/injection, schedule: Q04DX003 (ip), vehicle: water) was 110 % of control.

CC1=CC(=O)C(O)C2(C)C1CC1OC(=O)C(OC(=O)CC(C)(C)O)C3C(C)C(O)C4(O)OCC13C42 (centres undefined) was tested, and the T/C (dose: 0.5 mg/kg/injection, schedule: Q01DX009 (ip), vehicle: saline + alcohol) was 115 % of control, the T/C (dose: 1.0 mg/kg/injection, schedule: Q01DX009 (ip), vehicle: saline + alcohol) was 118 % of control and the T/C (dose: 2.0 mg/kg/injection, schedule: Q01DX009 (ip), vehicle: saline + alcohol) was 119 % of control. For the same compound, the T/C (dose: 8.0 mg/kg/injection, schedule: Q01DX009 (ip), vehicle: saline + alcohol) was 118 % of control.

For CN(C)c1ccc(-c2c3ccccc3nc3ccccc23)cc1, the T/C [7] was 90 % of control, the T/C [1] was 90 % of control and the T/C [3] was 100 % of control.

For CCCCCCCCN1CCS(=O)(=O)CC1, the T/C [8] was 89 % of control, the T/C [9] was 94 % of control and the T/C (dose: 200.0 mg/kg/injection, schedule: Q01DX009 (ip), vehicle: Klucel (hydroxypropylcellulose) (HPC)) was 93 % of control.

With CCOC(=O)C1C(=O)N2C(=O)C(NC(C)=O)=C(O)C2C1c1ccc(OC)cc1 (centres undefined) the T/C (dose: 100.0 mg/kg/injection, schedule: Q04DX002 (ip), vehicle: saline with Tween-80) was 100 % of control, the T/C (dose: 200.0 mg/kg/injection, schedule: Q04DX002 (ip), vehicle: saline with Tween-80) was 100 % of control and the T/C (dose: 400.0 mg/kg/injection, schedule: Q04DX002 (ip), vehicle: saline with Tween-80) was 98 % of control.

With CN(C)C(=O)C[n+]1ccccc1 the T/C (dose: 12.5 mg/kg/injection, schedule: Q01DX009 (ip), vehicle: saline) was 99 % of control, the T/C (dose: 25.0 mg/kg/injection, schedule: Q01DX009 (ip), vehicle: saline) was 98 % of control and the T/C [5] was 101 % of control.

C=C1C(=O)O[C@H]2[C@H]1C[C@@H](O)[C@@]1(C)[C@@H](OC(=O)/C(C)=C/C)C[C@@H]3O[C@]3(C)[C@H]21 was tested, and the T/C (dose: 9.0 mg/kg/injection, schedule: Q01DX005 (ip), vehicle: Klucel + Tween-80) was 105 % of control, the T/C (dose: 18.0 mg/kg/injection, schedule: Q01DX005 (ip), vehicle: Klucel + Tween-80) was 106 % of control and the T/C (dose: 36.0 mg/kg/injection, schedule: Q01DX005 (ip), vehicle: Klucel + Tween-80) was 105 % of control. The T/C (dose: 72.0 mg/kg/injection, schedule: Q01DX005 (ip), vehicle: Klucel + Tween-80) was 110 % of control.

For NC1(C(=O)O)CCCc2ccc(N(CCCl)CCCl)cc21 (centres undefined), the T/C (dose: 5.0 mg/kg/injection, schedule: Q04DX003 (ip), vehicle: saline) was 165 % of control, the T/C (dose: 6.25 mg/kg/injection, schedule: Q01DX009 (ip), vehicle: saline with Tween-80) was 218 % of control and 197 % of control and 201 % of control and the T/C (dose: 10.0 mg/kg/injection, schedule: Q04DX003 (ip), vehicle: saline) was 180 % of control. For the same compound, the T/C [7] was 272 % of control and 210 % of control and 215 % of control, the T/C (dose: 12.5 mg/kg/injection, schedule: Q04DX003 (ip), vehicle: saline with Tween-80) was 222 % of control and the T/C [1] was 90 % of control and 102 % of control and 121 % of control. For the same compound, the T/C [2] was 272 % of control, the T/C (dose: 313.0 micrograms/kg/injection, schedule: Q04DX003 (ip), vehicle: saline with Tween-80) was 100 % of control and the T/C (dose: 625.0 micrograms/kg/injection, schedule: Q04DX003 (ip), vehicle: saline with Tween-80) was 109 % of control. The T/C (dose: 1250.0 micrograms/kg/injection, schedule: Q04DX003 (ip), vehicle: saline with Tween-80) was 113 % of control.

Nc1ccc([N+](=O)[O-])cc1Nc1c2ccccc2nc2ccccc12 was tested, and the T/C [8] was 108 % of control and the T/C [9] was 107 % of control.

For O=C1C=C(c2ccccc2)S(=O)(=O)c2ccc(O)cc21, the T/C [10] was 121 % of control and the T/C [11] was 110 % of control.

For Cc1cc2c(c(C#N)c1C)NC(=O)CN=C2c1ccccc1F, the T/C [6] was 96 % of control, the T/C [12] was 98 % of control and the T/C [13] was 95 % of control.

In the case of O=C(Cc1ccccc1)C1=S=C2SCCCN2C1=O, the T/C (dose: 100.0 mg/kg/injection, schedule: Q01DX001 (ip), vehicle: saline with Tween-80) is reported as 105 % of control, the T/C (dose: 200.0 mg/kg/injection, schedule: Q01DX001 (ip), vehicle: saline with Tween-80) is reported as 97 % of control and the T/C (dose: 400.0 mg/kg/injection, schedule: Q01DX001 (ip), vehicle: saline with Tween-80) is reported as 92 % of control.

CCOC(=O)c1ccc(NC(=NC)c2ccccc2)cc1 was tested, and the T/C [3] was 108 % of control, the T/C [4] was 105 % of control and the T/C (dose: 200.0 mg/kg/injection, schedule: Q01DX009 (ip), vehicle: saline with Tween-80) was 97 % of control.

In the case of COC1/C=C/OC2(C)Oc3c(C)c(O)c4c(O)c(c(/C=N/N5CC(C)N(Cc6ccccc6)C(C)C5)c(O)c4c3C2=O)NC(=O)C(C)=C/C=C/C(C)C(O)C(C)C(O)C(C)C(OC(C)=O)C1C (centres undefined), the T/C [7] is reported as 113 % of control, the T/C [1] is reported as 109 % of control and the T/C [3] is reported as 118 % of control and 124 % of control. For the same compound, the T/C [4] was 114 % of control.

O=c1[nH]cnc2cc(N3CCN(Cc4ccccc4)CC3)c([N+](=O)[O-])cc12 was tested, and the T/C (dose: 100.0 mg/kg/injection, schedule: Q04DX003 (ip), vehicle: Klucel (hydroxypropylcellulose) (HPC)) was 102 % of control, the T/C (dose: 200.0 mg/kg/injection, schedule: Q04DX003 (ip), vehicle: Klucel (hydroxypropylcellulose) (HPC)) was 98 % of control and the T/C (dose: 400.0 mg/kg/injection, schedule: Q04DX003 (ip), vehicle: Klucel (hydroxypropylcellulose) (HPC)) was 106 % of control.

For O=C(O)CCCc1ccc2ccc3cccc4ccc1c2c34, the T/C [10] was 102 % of control, the T/C [11] was 98 % of control and the T/C [14] was 100 % of control.

In the case of CC1CC(O)C(O)(c2ccccc2)CC1C (centres undefined), the T/C (dose: 100.0 mg/kg/injection, schedule: Q01DX001 (ip), vehicle: Klucel (hydroxypropylcellulose) (HPC)) is reported as 104 % of control, the T/C (dose: 200.0 mg/kg/injection, schedule: Q01DX001 (ip), vehicle: Klucel (hydroxypropylcellulose) (HPC)) is reported as 101 % of control and the T/C (dose: 400.0 mg/kg/injection, schedule: Q01DX001 (ip), vehicle: Klucel (hydroxypropylcellulose) (HPC)) is reported as 99 % of control.

In the case of CCN(CC)CCCNCc1cc(-c2ccccc2)nc2cc(Cl)ccc12, the T/C [10] is reported as 102 % of control, the T/C [11] is reported as 100 % of control and the T/C [14] is reported as 100 % of control.

With C=CC=O the T/C (dose: 0.44 mg/kg/injection, schedule: Q01DX009 (ip), vehicle: saline) was 109 % of control, the T/C (dose: 0.88 mg/kg/injection, schedule: Q01DX009 (ip), vehicle: saline) was 109 % of control and the T/C (dose: 1.56 mg/kg/injection, schedule: Q01DX009 (ip), vehicle: saline) was 109 % of control.

For CN1NC(c2ccccc2)=C(C#N)C(=O)CC1c1cccs1 (centres undefined), the T/C [6] was 95 % of control, the T/C [12] was 88 % of control and the T/C [13] was 96 % of control.

For Cc1ccccc1CC1c2[nH]c3ccccc3c2CCN1C (centres undefined), the T/C [6] was 109 % of control and the T/C [12] was 109 % of control.

With CCCCOc1ccc(Nc2c3ccccc3nc3ccccc23)cc1 the T/C [7] was 98 % of control and 91 % of control, the T/C [1] was 98 % of control and 106 % of control and the T/C [3] was 121 % of control.

For O=C(CCCc1ccc(N2C(=O)C=CC2=O)cc1)ON1C(=O)CCC1=O, the T/C (dose: 12.5 mg/kg/injection, schedule: Q04DX002 (ip), vehicle: saline with Tween-80) was 105 % of control and the T/C (dose: 25.0 mg/kg/injection, schedule: Q04DX002 (ip), vehicle: saline with Tween-80) was 104 % of control.
